# Results taken from ChEMBL document CHEMBL1145620, “Synthesis and evaluation of sulfamide-type indolizidines as glycosidase inhibitors” (Bioorg Med Chem Lett, 2008).
# The source made the active and inactive calls. No cut-off for these calls is given here.
# Key:
# [1] = system: Saccharomyces cerevisiae; assay: (§1) Inhibition of yeast alpha-glucosidase
# [2] = system: Prunus dulcis; assay: Inhibition of almonds beta-glucosidase
# [3] = target: Alpha-galactosidase (Coffea arabica) (UniProt Q5DUH8); assay: Inhibition of green coffee beans alpha-galactosidase
# [4] = target: T1, Beta-galactosidase (Bos taurus) (UniProt Q58D55); assay: Inhibition of bovine liver beta-galactosidase
# T1 sequence (whole entry): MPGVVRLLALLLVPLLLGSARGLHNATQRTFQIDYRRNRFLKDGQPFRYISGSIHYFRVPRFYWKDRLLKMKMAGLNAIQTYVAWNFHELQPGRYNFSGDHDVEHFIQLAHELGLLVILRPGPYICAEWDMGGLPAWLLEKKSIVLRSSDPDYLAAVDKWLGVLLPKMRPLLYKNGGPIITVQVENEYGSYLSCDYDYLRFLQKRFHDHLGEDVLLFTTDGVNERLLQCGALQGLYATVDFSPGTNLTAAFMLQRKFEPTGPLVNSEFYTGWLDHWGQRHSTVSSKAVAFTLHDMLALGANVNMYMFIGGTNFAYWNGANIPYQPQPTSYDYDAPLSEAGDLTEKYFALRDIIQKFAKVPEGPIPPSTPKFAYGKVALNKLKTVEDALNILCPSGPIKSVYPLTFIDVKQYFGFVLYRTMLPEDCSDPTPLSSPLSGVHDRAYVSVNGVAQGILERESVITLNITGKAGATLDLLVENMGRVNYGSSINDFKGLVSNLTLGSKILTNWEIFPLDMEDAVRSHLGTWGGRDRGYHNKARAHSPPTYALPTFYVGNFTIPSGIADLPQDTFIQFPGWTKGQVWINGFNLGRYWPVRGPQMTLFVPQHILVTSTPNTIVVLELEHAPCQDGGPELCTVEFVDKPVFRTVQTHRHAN
# [5] = (§2) Inhibition of jack beans alpha-mannosidase; parameters: species or system Canavalia ensiformis
# [6] = system: Cornu aspersum; assay: Inhibition of snail beta-mannosidase
# [7] = system: Saccharomyces cerevisiae; assay: Inhibition of yeast isomaltase
# [8] = system: Aspergillus niger; assay: Inhibition of Aspergillus niger amyloglucosidase
# [9] = target: T2, Uncharacterized protein (Sus scrofa) (UniProt I3LIR5); assay: Inhibition of pig kidney trehalase
# T2 sequence (whole entry): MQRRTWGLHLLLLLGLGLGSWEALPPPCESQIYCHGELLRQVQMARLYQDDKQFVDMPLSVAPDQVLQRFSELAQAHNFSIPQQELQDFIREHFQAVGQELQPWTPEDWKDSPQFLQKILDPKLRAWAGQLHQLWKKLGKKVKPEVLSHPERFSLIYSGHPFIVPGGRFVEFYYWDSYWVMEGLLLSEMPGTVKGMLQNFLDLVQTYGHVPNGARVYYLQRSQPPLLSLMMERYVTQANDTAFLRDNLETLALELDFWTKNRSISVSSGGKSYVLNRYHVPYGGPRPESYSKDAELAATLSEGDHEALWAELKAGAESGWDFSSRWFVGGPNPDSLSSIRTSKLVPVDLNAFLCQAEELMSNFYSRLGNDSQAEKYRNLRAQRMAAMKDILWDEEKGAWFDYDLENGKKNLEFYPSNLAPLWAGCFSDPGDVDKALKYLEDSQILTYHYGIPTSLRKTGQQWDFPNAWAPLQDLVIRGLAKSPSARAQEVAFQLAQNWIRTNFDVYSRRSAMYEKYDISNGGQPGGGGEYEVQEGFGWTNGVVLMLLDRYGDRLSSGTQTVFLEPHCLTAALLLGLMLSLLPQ
# [10] = system: Penicillium decumbens; assay: Inhibition of Penicillium decumbens naringinase
# [11] = Inhibition of bovine liver beta-glucosidase; parameters: species or system Bos taurus
# [12] = system: Canavalia ensiformis; assay: as §2
# [13] = as §1; parameters: species or system Saccharomyces cerevisiae
# Alpha-galactosidase (Coffea arabica), sequence (Q5DUH8 as listed by the source): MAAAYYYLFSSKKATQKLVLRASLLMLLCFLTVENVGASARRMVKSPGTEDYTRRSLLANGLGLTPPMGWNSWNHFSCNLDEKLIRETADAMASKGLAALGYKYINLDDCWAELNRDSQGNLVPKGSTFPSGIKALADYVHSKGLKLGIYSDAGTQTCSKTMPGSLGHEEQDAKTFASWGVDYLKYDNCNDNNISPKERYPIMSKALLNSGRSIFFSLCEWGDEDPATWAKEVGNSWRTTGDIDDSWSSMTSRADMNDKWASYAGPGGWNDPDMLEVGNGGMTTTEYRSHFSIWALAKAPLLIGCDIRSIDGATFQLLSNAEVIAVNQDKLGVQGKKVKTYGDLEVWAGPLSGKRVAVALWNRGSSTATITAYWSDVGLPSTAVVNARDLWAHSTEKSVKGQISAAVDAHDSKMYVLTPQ
Compound,Activity [6],Activity [12],Ki [13],other results
O=S1(=O)NC[C@@H]2[C@@H](O)[C@H](O)[C@@H](O)C(O)N21 (stereo partly specified),inactive,–,–,Activity [1]: inactive; Activity [2]: inactive; Activity [3]: inactive; Activity [4]: inactive; Ki [5]: 320 µM; Activity [7]: inactive; Activity [8]: inactive; Activity [9]: inactive; Activity [10]: inactive
CCCC/N=C1/OC[C@@H]2[C@@H](O)[C@H](O)[C@@H](O)[C@@H](O)N12,Active,Active,–,Ki [11]: 2.2 µM
O=C1OC[C@@H]2[C@@H](O)[C@H](O)[C@@H](O)[C@@H](O)N12,Active,Active,40 µM,–
O=C1NC[C@@H]2[C@@H](O)[C@H](O)[C@@H](O)[C@@H](O)N12,Active,Active,5700 µM,–
O=S1(=O)NC[C@@H]2[C@@H](O)[C@H](O)[C@H](O)C(O)N21 (stereo partly specified),–,–,–,Ki [5]: 150 µM
O[C@@H]1[C@@H](O)[C@@H](O)N2C(=S)OC[C@@H]2[C@H]1O,Active,Active,2.2 µM,–
O[C@@H]1[C@@H](O)[C@@H](O)N2C(=S)NC[C@@H]2[C@H]1O,Active,Active,4200 µM,–
